Measurements published in article PMC6917776, “Discovery of a chemical probe for PRDM9” (Nature Communications, 2019).
Several values for one entry are separate records, joined by “and”; a condition that tells them apart may be missing. Equal entries are not always repeated. Where two headings read alike, the source gives them in different places.

Key:
HCC1806 = test: CelltiterGlo viability cell assay; assay type: cell-based; conditions: up to 30 μM; days 3 and 6; Prdm9 expressing line
Experimental: (§1) Supplementary Figure 13. […] Viability of
(§2) (a) Multiple Myeloma lines and (b) Breast Cancer cell lines following 3 or 6 days treatment with […]
(§3) manufacturer’s instructions as described in the Supplementary methods. Data are normalized to DMSO control. N=3 biological replicates, +/- SEM. Source data are provided as a Source Data […]
(§4) CelltiterGlo viability cell assay
(§5) Cells were seeded in 96 well plates at per-well densities of 10000 (MDA-MB436, ATCC-HTB130), 15000 (8226, kind gift from Rodger Tiedemann, Princess Margaret Cancer Centre), […]
(§6) kind gift from Rodger Tiedemann, Princess Margaret Cancer Centre) and 50000 (CAL851, kind gift from Mathieu Lupien, Princess Margaret Cancer Centre) and were treated at increasing concentrations of compounds ranging from 0.01 μM to 30 μM and assessed for proliferation using CelltiterGlo (Promega) following manufacturer’s instructions, as readout on days 3 and 6 as indicated. All cell lines were mycoplasma negative, as determined by MycoAlert™ Mycoplasma Detection Kit(Lonza). […]

SKMM2 = test: CelltiterGlo viability cell assay; assay type: cell-based; conditions: up to 30 μM; days 3 and 6; Prdm9 expressing line
Experimental: as §1, §2, §3, §4, §5, §6

HCC1143 = test: CelltiterGlo viability cell assay; assay type: cell-based; conditions: up to 30 μM; days 3 and 6; matched control line
Experimental: as §1, §2, §3, §4, §5, §6

[1] = molecular target: T1, PRDM9 (amino acids: 195–415) (Homo sapiens, UniProt Q9NQV7); test: PRDM9 methyltransferase activity assay (3H-SAM scintillation proximity assay); assay type: biochemical; conditions: for activity at 100 µM: 100 µM compound
T1 construct: PRDM9 (amino acids: 195–415)
T1 sequence (Q9NQV7 195-415): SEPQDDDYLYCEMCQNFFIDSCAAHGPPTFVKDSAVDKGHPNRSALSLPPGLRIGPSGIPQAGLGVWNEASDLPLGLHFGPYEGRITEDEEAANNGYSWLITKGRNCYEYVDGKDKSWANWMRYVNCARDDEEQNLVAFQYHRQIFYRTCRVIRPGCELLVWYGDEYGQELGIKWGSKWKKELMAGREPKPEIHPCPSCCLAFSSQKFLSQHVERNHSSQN
Experimental: Methyltransferase activity assays for PRDM9 (amino acids: 195–415) were performed by monitoring the incorporation of tritium-labeled methyl group from ^3H-SAM to H3 (1–25) peptide using scintillation proximity assay (SPA). The enzymatic reactions were performed at 23 °C with 30 min incubation in 20 mM Tris-HCl (pH 7.5), 5 mM DTT, 0.01% Triton X-100 and 1% DMSO containing 71 μM of SAM (5 μM of ^3H-SAM), 4 μM of biotinylated H3 (1–25) peptide and 5 nM of PRDM9. For PRDM7, reactions were performed at 23 °C with 90 min incubation in 20 mM BTP pH 9.0, 5 mM DTT, 0.01% Triton X-100 and 1% DMSO containing 900 μM of SAM (5 μM of ^3H-SAM), 4 μM of biotinylated H3 (1–25) peptide and 100 nM of enzyme. […] To stop the reactions, 10 μL of 7.5 M guanidine hydrochloride was added to 10 μL of reaction mixture, followed by 60 μL of buffer (20 mM Tris, pH 8.0), mixed, and transferred to a 384-well streptavidin coated Flash-plate. After mixing, the mixtures in Flash-plate were incubated for 2 h, and the CPM counts were measured using TopCount plate reader. All enzymatic reactions were performed in triplicate, and IC50 values were determined by fitting the data to Four Parameter Logistic equation using the GraphPad Prism software.

SMILES: COc1cc(OC)cc(-c2noc(N3CCN(C)C4(CCN(c5ccccc5)CC4)C3)n2)c1 [MRK-740-NC]
- Effect on proliferation (in words) (HCC1806): did not have any significant effect
- Effect on proliferation (in words) (SKMM2): did not have any significant effect
- Effect on proliferation (in words) (HCC1143): did not have any significant effect
- PRDM9 inhibition (in words) [1]: inactive control compound
- PRDM9-Activity %, single experiments ([1]; 0.00610352 µM compound, 0.00610352 µM): 111.779% and 111.39%
- activity at 0.00610352 µM ([1]; 0.00610352 µM compound, n=6 MRK-740, n=3 MRK-740-NC, read-out: PRDM9-Activity %, Average): 110%
- activity at 0.00610352 µM ([1]; 0.00610352 µM compound, read-out: PRDM9-Activity %, single experiments): 108%
- PRDM9-Activity %, single experiments ([1]; 0.012207 µM compound, 0.012207 µM): 116.346% and 113.283%
- activity at 0.012207 µM ([1]; 0.012207 µM compound, n=6 MRK-740, n=3 MRK-740-NC, read-out: PRDM9-Activity %, Average): 115%
- activity at 0.012207 µM ([1]; 0.012207 µM compound, read-out: PRDM9-Activity %, single experiments): 116%
- PRDM9-Activity %, single experiments ([1]; 0.0244141 µM compound, 0.0244141 µM): 104.873% and 111.39%
- activity at 0.0244141 µM ([1]; 0.0244141 µM compound, n=6 MRK-740, n=3 MRK-740-NC, read-out: PRDM9-Activity %, Average): 111%
- activity at 0.0244141 µM ([1]; 0.0244141 µM compound, read-out: PRDM9-Activity %, single experiments): 116%
- PRDM9-Activity %, single experiments ([1]; 0.0488281 µM compound, 0.0488281 µM): 125.258% and 118.268%
- activity at 0.0488281 µM ([1]; 0.0488281 µM compound, n=6 MRK-740, n=3 MRK-740-NC, read-out: PRDM9-Activity %, Average): 122%
- activity at 0.0488281 µM ([1]; 0.0488281 µM compound, read-out: PRDM9-Activity %, single experiments): 121%
- PRDM9-Activity %, single experiments ([1]; 0.0976562 µM compound, 0.0976562 µM): 107.407% and 111.807%
- activity at 0.0976562 µM ([1]; 0.0976562 µM compound, n=6 MRK-740, n=3 MRK-740-NC, read-out: PRDM9-Activity %, Average): 109%
- activity at 0.0976562 µM ([1]; 0.0976562 µM compound, read-out: PRDM9-Activity %, single experiments): 108%
- PRDM9-Activity %, single experiments ([1]; 0.195312 µM compound, 0.195312 µM): 118.212% and 116.151%
- activity at 0.195312 µM ([1]; 0.195312 µM compound, n=6 MRK-740, n=3 MRK-740-NC, read-out: PRDM9-Activity %, Average): 119%
- activity at 0.195312 µM ([1]; 0.195312 µM compound, read-out: PRDM9-Activity %, single experiments): 122%
- PRDM9-Activity %, single experiments ([1]; 0.390625 µM compound, 0.390625 µM): 107.574% and 115.149%
- activity at 0.390625 µM ([1]; 0.390625 µM compound, n=6 MRK-740, n=3 MRK-740-NC, read-out: PRDM9-Activity %, Average): 111%
- activity at 0.390625 µM ([1]; 0.390625 µM compound, read-out: PRDM9-Activity %, single experiments): 112%
- PRDM9-Activity %, single experiments ([1]; 0.78125 µM compound, 0.78125 µM): 116.708% and 121.749%
- activity at 0.78125 µM ([1]; 0.78125 µM compound, n=6 MRK-740, n=3 MRK-740-NC, read-out: PRDM9-Activity %, Average): 119%
- activity at 0.78125 µM ([1]; 0.78125 µM compound, read-out: PRDM9-Activity %, single experiments): 120%
- PRDM9-Activity %, single experiments ([1]; 1.5625 µM compound, 1.5625 µM): 114.731% and 115.595%
- activity at 1.5625 µM ([1]; 1.5625 µM compound, n=6 MRK-740, n=3 MRK-740-NC, read-out: PRDM9-Activity %, Average): 116%
- activity at 1.5625 µM ([1]; 1.5625 µM compound, read-out: PRDM9-Activity %, single experiments): 117%
- PRDM9-Activity %, single experiments ([1]; 3.125 µM compound, 3.125 µM): 124.004% and 125.898%
- activity at 3.125 µM ([1]; 3.125 µM compound, n=6 MRK-740, n=3 MRK-740-NC, read-out: PRDM9-Activity %, Average): 123%
- activity at 3.125 µM ([1]; 3.125 µM compound, read-out: PRDM9-Activity %, single experiments): 120%
- PRDM9-Activity %, single experiments ([1]; 6.25 µM compound, 6.25 µM): 105.486% and 104.623%
- activity at 6.25 µM ([1]; 6.25 µM compound, n=6 MRK-740, n=3 MRK-740-NC, read-out: PRDM9-Activity %, Average): 105%
- activity at 6.25 µM ([1]; 6.25 µM compound, read-out: PRDM9-Activity %, single experiments): 105%
- PRDM9-Activity %, single experiments ([1]; 12.5 µM compound, 12.5 µM): 112.476% and 115.762%
- activity at 12.5 µM ([1]; 12.5 µM compound, n=6 MRK-740, n=3 MRK-740-NC, read-out: PRDM9-Activity %, Average): 114%
- activity at 12.5 µM ([1]; 12.5 µM compound, read-out: PRDM9-Activity %, single experiments): 114%
- PRDM9-Activity %, single experiments ([1]; 25 µM compound, 25 µM): 98.6355% and 87.9699%
- activity at 25 µM ([1]; 25 µM compound, n=6 MRK-740, n=3 MRK-740-NC, read-out: PRDM9-Activity %, Average): 94.3%
- activity at 25 µM ([1]; 25 µM compound, read-out: PRDM9-Activity %, single experiments): 96.2%
- PRDM9-Activity %, single experiments ([1]; 50 µM compound, 50 µM): 103.397% and 100.975%
- activity at 50 µM ([1]; 50 µM compound, n=6 MRK-740, n=3 MRK-740-NC, read-out: PRDM9-Activity %, Average): 102%
- activity at 50 µM ([1]; 50 µM compound, read-out: PRDM9-Activity %, single experiments): 101%
- activity at 100 µM ([1]; n=3, read-out: PRDM9-Activity %, Average): 80.5%
- activity at 100 µM ([1]; read-out: PRDM9-Activity %, single experiments): 82.7%
